Source: US20080234362A1, “Treatment for Asthma and Arthritis and Other Inflammatory Diseases” (BIONOVATE LIMITED, priority 2004, published 2008)
Entries after “also recorded” stand apart in the source; their conditions may differ. Where two headings read alike, the source gives them in different places.

Columns and labels:
mast cells = details: cited from earlier work; for IC50: read-out: IC50 (μM) degranulation of mast cells; for ranking of activity in the anti-allergy model: mast cell degranulation
[1] = in vitro; cited from earlier work
TPA-induced ear oedema = details: cited from earlier work
[2] = tested on: histamine, TNFα and IL-1B induced by IgE; details: mouse and rat model; cited from earlier work
LTB4 production = details: 9 g/day; cited from earlier work
TNFα = details: cited from earlier work
[3] = tested on: Recurrent airway obstruction (RAO); assay: double-blind placebo controlled clinical trial on recurrent airway obstruction in horses; assay type: in vivo; details: horses with RAO
Excerpt: A Double-Blind Placebo Controlled Clinical Trial comparing the Efficacy of the Green Lipped Mussel Lipid Extract and Flavonoid alone and in Combination on Recurrent Airway Obstruction in Horses.
Recurrent airway obstruction (RAO), an equine asthma, is a chronic inflammatory disease of the airways typified by bronchoconstriction, wheezing and increased mucous production and caused by allergy to fungal and other dusts but mediated, in part, by leukotrienes and other lipid mediators. […] Studies included clinical status, exercise recovery, breath condensate, broncho-alveolar lavage, cytology and mucous scorings.
Eight horses aged 9-21 with RAO symptoms and cytology consistent with the accepted definition of RAO were recruited.
The study was a double blind randomized, placebo controlled trial. […]
Subjects were clinically and endoscopically examined and BAL and condensate collected and frozen in liquid nitrogen every two weeks. […] The BAL cytology was scored by neutrophil count. Mucous was scored by location, type, volume and viscosity. […]
The clinical assessments scores were assessed as a mean clinical RAO score. The clinical assessments were evaluated on a scale of 1-10 where 1 was severe disease symptomology and 10 indicated a disease-free condition score and the results are shown in Table 1 and FIG. 3. […]

[4] = tested on: antigen-induced bronchoconstriction and airway hyper-reactivity; details: oral, before and after sensitisation; ovalbumin; cited from earlier work

O=c1cc(-c2ccccc2)oc2ccccc12 [Flavone]
IC50 (mast cells): > 100 µM

COc1ccc(-c2cc(=O)c3c(O)cc(O)cc3o2)cc1O [Diosmetin]
ranking of activity in the anti-allergy model (mast cells): most active

O=c1c(O)c(-c2cc(O)c(O)c(O)c2)oc2cc(O)cc(O)c12 [Myricetin]
IC50 (mast cells): 6.7 µM
antioxidant efficiency versus traditional vitamins [1]: more efficient antioxidants than traditional vitamins

O=c1c(O)c(-c2ccc(O)cc2O)oc2cc(O)cc(O)c12 [Morin]
IC50 (mast cells): 51 µM

O=c1c(O)c(-c2ccccc2)oc2ccc(O)cc12 [3,6-dihydroxyflavone]
IC50 (mast cells): 6 µM

O=c1c(O)c(-c2ccc(O)c(O)c2)oc2cc(O)ccc12 [Fisetin]
ranking of activity in the anti-allergy model (mast cells): most active
IC50 (mast cells): 3.3 µM

O=c1c(O)c(-c2ccc(O)c(O)c2)oc2cc(O)cc(O)c12 [Quercetin]
ranking of activity in the anti-allergy model (mast cells): most active
IC50 (mast cells): 3 µM
antioxidant efficiency versus traditional vitamins [1]: more efficient antioxidants than traditional vitamins
oral anti-inflammatory activity, TPA ear oedema (TPA-induced ear oedema): effective
potency on IgE-induced histamine, TNFα and IL-1B production versus other agents [2]: more potent than many other agents

O=c1cc(-c2ccccc2)oc2cc(O)cc(O)c12 [Chrysin]
IC50 (mast cells): > 100 µM

O=c1c(O)c(-c2ccc(O)cc2)oc2cc(O)cc(O)c12 [Kaempferol]
IC50 (mast cells): 7.5 µM

CC/C=C\C/C=C\C/C=C\CCCCCCCC(=O)O [a-LNA, a-linolenic acid]
LTB4 production and pulmonary function (LTB4 production): inhibit LTB4 production and improve pulmonary function

COc1ccc(-c2cc(=O)c3c(O)cc(O[C@@H]4O[C@H](CO[C@@H]5O[C@@H](C)[C@H](O)[C@@H](O)[C@H]5O)[C@@H](O)[C@H](O)[C@H]4O)cc3o2)cc1O [Diosmin]
IC50 (mast cells): > 100 µM

O=c1c(O)c(-c2ccccc2)oc2cc(O)cc(O)c12 [Galangin]
IC50 (mast cells): 40 µM

O=c1cc(-c2ccc(O)cc2)oc2cc(O)cc(O)c12 [Apigenin]
ranking of activity in the anti-allergy model (mast cells): most active
IC50 (mast cells): 4.5 µM
oral in vivo anti-TNFα activity (TNFα): potent

O=c1cc(-c2ccccc2)oc2cc(O)ccc12 [7-hydroxyflavone]
IC50 (mast cells): 21 µM

O=c1cc(-c2ccc(O)c(O)c2)oc2cc(O)cc(O)c12 [Luteolin]
Mean clinical RAO score ([3]; 4 capsules per day, 28 days, scale 1-10, 1 severe, 10 disease-free): 3.38^ade
improvement of respiratory function ([3]; versus placebo): significantly (P<0.001) improved
ranking of activity in the anti-allergy model (mast cells): most potent
ranking of activity in the anti-allergy model (mast cells; listed as luteolin): most active
IC50 (mast cells): 1.8 µM
oral in vivo anti-TNFα activity (TNFα): potent; also recorded: more potent than apigenin; also recorded: inhibited
antigen-induced bronchoconstriction and airway hyper-reactivity [4]: significantly reduced
oral anti-inflammatory activity, TPA ear oedema (TPA-induced ear oedema): effective
potency on IgE-induced histamine, TNFα and IL-1B production versus other agents [2]: more potent than many other agents

O=c1cc(-c2ccccc2)oc2cc(O)c(O)c(O)c12 [Baicalein]
IC50 (mast cells): 17 µM
potency on IgE-induced histamine, TNFα and IL-1B production versus other agents [2]: more potent than many other agents

O=c1c(O)c(-c2ccccc2)oc2ccccc12 [3-hydroxyflavone]
IC50 (mast cells): > 100 µM

O=c1cc(-c2ccccc2)oc2ccc(O)cc12 [6-hydroxyflavone]
IC50 (mast cells): 28 µM
